Patent publication EP0099122A2, “Compositions comprising pepstatin and an histamine H2-receptor antagonist having an enhanced antiulcer activity” (Bristol-Myers Company, priority 1982, dated 1984)
Entries after “also recorded” stand apart in the source; their conditions may differ. Square brackets hold non-standard residues; d marks the D form. Peptide text beside a SMILES is read from it. * marks the point of attachment. Sta = CC(C)C[C@H](N)[C@@H](O)CC(=O)O; Isovaleryl = CC(C)CC(=O)*

Experiments:
pylorus ligated rat [1] = assay: Pylorus ligated (Shay) rat; type: in vivo; details: 20 mg/kg po, 18 hour pylorus ligated rat, previous studies of the applicant
Method: The role of the proteolytic enzyme, pepsin, in the etiology of ulceration is not completely understood. […] It is also possible that pepsin is entirely responsible for the erosions and that the acid produces pain and retards healing. • 1) Umezawa, H. et al., in J. Antibiotics, 23, 259-262 (1970), disclose the pentapeptide, pepstatin, which has the structure [drawing 4] and which is a specific complexing agent for the enzyme pepsin. […] Pepstatin was administered in 100 mg doses, given seven aimes a day, this dosage being sufficient to inhibit the peptic activity of gastric juice for 18 hours a day. […] J. Gastroent., 14, 929-932 (1979), report the results of a double-blind randomized clinical trial of pepstatin versus placebo in patients having gastric ulcer. Pepstatin was administered in 100 mg doses seven times a day. […] When the two agents were given together, significant ulcer reduction was found after only one-half day of predosing. Carbenoxolone is not an antisecretory or anti-pepsin agent, but acts by stimulating gastric mucus synthesis. • 6) Dajani, E. Z. et al., in J. Pharmacol. Exp. Ther., 210, 373-377 (1979), disclose that, in stress ulceration tests in rats, a combination of cimetidine and propantheline bromide produced synergistic antiulcer activity and that a combination of cimetidine and thiopropazate hydrochloride produced additive antiulcer activity. […]

[2] = all animal species studied; cited from earlier work
gastric peptic activity = details: patients with ulcer dyspepsia, cited from earlier work
[3] = cited from earlier work
pepsin = details: 100 mg doses seven times a day, ulcer patients; cited from earlier work
pylorus ligated rat [4] = details: pylorus ligated (Shay) rat, Umezawa et al.; cited from earlier work
duodenal ulcer = details: 100 mg doses seven times a day versus placebo; cited from earlier work
gastric ulcer = details: 100 mg doses seven times a day versus placebo; cited from earlier work
[5] = tested on: pepsin activity in the gastric juice of swine; details: added to the feed at >50 ppm; cited from earlier work

**Q.** Which pepsin activity (pylorus ligated rat [1]) does the source give for `CC(C)CC(=O)N[C@H](C(=O)N[C@H](C(=O)N[C@@H](CC(C)C)[C@@H](O)CC(=O)N[C@@H](C)C(=O)N[C@@H](CC(C)C)[C@@H](O)CC(=O)O)C(C)C)C(C)C` [Pepstatin, pepstatin] (Isovaleryl-VV[Sta]A[Sta]-OH) here?
**A.** completely inhibited pepsin activity

**Q.** And the ulcer formation (pylorus ligated rat [1])?
**A.** antagonized ulcer formation

**Q.** And the LD50 [2]?
**A.** exceeded 3000 mg/kg

**Q.** What about the side effects (gastric peptic activity; daily oral doses of 700 mg for up to three months) of the same molecule?
**A.** no side effects were observed

**Q.** What about the gastric acidity (gastric peptic activity) of the same molecule?
**A.** has no effect on the gastric acidity

**Q.** And the gastric peptic activity (gastric peptic activity)?
**A.** inhibits gastric peptic activity

**Q.** And the “excreted in the feces” value ([3]; oral administration, animal studies, within 72 hours)?
**A.** more than 90%

**Q.** And the “absorption upon oral administration” value ([3]; oral)?
**A.** essentially unabsorbed; also recorded: only poorly absorbed

**Q.** What about the “time for which pepsin activity was inhibited” value (pepsin) of the same molecule?
**A.** 18 hours a day

**Q.** What about the “formation of stomach ulcers” value (pylorus ligated rat [4]) of the same molecule?
**A.** prevent the formation of stomach ulcers

**Q.** And the “healing or symptomatology of duodenal ulcer” value (duodenal ulcer)?
**A.** no significant difference between pepstatin and placebo

**Q.** And the “healing or symptomatology of gastric ulcer” value (gastric ulcer)?
**A.** not able to detect any influence of pepstatin

**Q.** And the occurrence of ulcers [5]?
**A.** prevented the occurrence of ulcers

**Q.** And the “pepsin activity in the gastric juice” value [5]?
**A.** inhibited pepsin activity in the gastric juice of swine
